Reference: patent publication US9145351B2, “Azole derivatives, methods for producing the same, intermediate thereof, agro-horticultural agents” (KUREHA CORPORATION, priority 2009, dated 2015)

Experiments:
Fusarium graminearum = experiment: whole plant or invertebrate; assay type: in vivo; conditions: in Triticum aestivum, 168 h, read-out: Protective value
Ustilago nuda = experiment: Plate medium fungicidal assay, barley loose smut U.n (Experimental Example 5); assay type: cell-based
Experimental: In this Experimental Example, the fungicidal effects of the inventive compounds on various phytopathogenic fungi for plants and hazardous microorganism for industrial materials were examined by the methods described below. Each inventive compound was dissolved in 2 ml of dimethyl sulfoxide. 0.6 ml of this solution was added to 60 nil of a PDA medium (potato dextrose agar medium) at about 60 degrees C., which was mixed thoroughly in a 100-ml conical flask, and poured into a dish, where it was solidified, thereby obtaining a plate medium containing the inventive compound at 50 mg/L and 5 mg/L. On the other hand, a subject microorganism previously cultured on a plate medium was cut out using a cork borer whose diameter was 4 mm, and inoculated to the test compound-containing plate medium described above. […] The growth degree of the microorganism on the test compound-containing plate medium thus observed was compared with the growth degree of the microorganism in the untreated group, and % mycelial growth inhibition was calculated by the following equation. R=100(dc−dt)/dc wherein R=% mycelial extension inhibition, dc=flora diameter in untreated plate, dt=flora diameter in treated plate. The results obtained as described above were evaluated as one of the 5 grades according to the following criteria. […] Barley loose smut (Ustilago nuda) U.n

Trichoderma sp. = experiment: Plate medium assay, industrial material deteriorating microorganism, Trichoderma (Experimental Example 5); assay type: cell-based; conditions: treatment at 50 mg/l, PDA plate medium, read-out: growth inhibition grade
Experimental: (§1) In this Experimental Example, the fungicidal effects of the inventive compounds on various phytopathogenic fungi for plants and hazardous microorganism for industrial materials were examined by the methods described below. Each inventive compound was dissolved in 2 ml of dimethyl sulfoxide. 0.6 ml of this solution was added to 60 nil of a PDA medium (potato dextrose agar medium) at about 60 degrees C., which was mixed thoroughly in a 100-ml conical flask, and poured into a dish, where it was solidified, thereby obtaining a plate medium containing the inventive compound at 50 mg/L and 5 mg/L. On the other hand, a subject microorganism previously cultured on a plate medium was cut out using a cork borer whose diameter was 4 mm, and inoculated to the test compound-containing plate medium described above. […] The growth degree of the microorganism on the test compound-containing plate medium thus observed was compared with the growth degree of the microorganism in the untreated group, and % mycelial growth inhibition was calculated by the following equation. R=100(dc-dt)/dc wherein R=% mycelial extension inhibition, dc=flora diameter in untreated plate, dt=flora diameter in treated plate. The results obtained as described above were evaluated as one of the 5 grades according to the following criteria.

Penicillium sp. = experiment: Plate medium assay, industrial material deteriorating microorganism, Penicillium (Experimental Example 5); assay type: cell-based; conditions: treatment at 50 mg/l, PDA plate medium, read-out: growth inhibition grade
Experimental: as §1

Cladosporium sp. = experiment: Plate medium assay, industrial material deteriorating microorganism, Cladosporium (Experimental Example 5); assay type: cell-based; conditions: treatment at 50 mg/l, PDA plate medium, read-out: growth inhibition grade
Experimental: as §1

Phaeosphaeria nodorum = experiment: Plate medium fungicidal assay, wheat Septoria nodorum blotch P.n (Experimental Example 5); assay type: cell-based
Experimental: as §1, with “R=100(dc−dt)/dc” for “R=100(dc-dt)/dc”, “criteria. […] Wheat Septoria nodorum blotch (Phaeosphaeria nodorum) P.n” for “criteria.”

Alternaria alternata = experiment: Plate medium fungicidal assay, Alternaria blotch A.m (Experimental Example 5); assay type: cell-based
Experimental: as §1, with “R=100(dc−dt)/dc” for “R=100(dc-dt)/dc”, “criteria. […] Alternaria blotch (Alternaria alternata) A.m” for “criteria.”

Fusarium oxysporum = experiment: Plate medium fungicidal assay, cucumber fusarium wilt F.c (Experimental Example 5); assay type: cell-based
Experimental: as §1, with “R=100(dc−dt)/dc” for “R=100(dc-dt)/dc”, “criteria. […] Cucumber fusarium wilt (Fusarium oxysporum) F.c” for “criteria.”

[1] = plate medium containing compound at 5 mg/L
[2] = plate medium containing compound at 50 mg/L

C[C@]1(CCl)CC[C@@H](Cc2ccc(Cl)cc2)[C@]1(O)Cn1ccnc1 (racemic) [Compound I-244, (1RS,2SR,5SR)-5-(4-chlorobenzyl)-2-chloromethyl-2-methyl-1-imidazol-1-ylmethylcyclopentanol]
pest or weed control at 500 µg/mL (Fusarium graminearum): ≥ 90%
inhibition at 5 µg/mL (Ustilago nuda; Ustilago nuda, plate medium, 5 mg/L, read-out: growth inhibition grade U.n): > 80%
inhibition at 50 µg/mL (Ustilago nuda; Ustilago nuda, plate medium, 50 mg/L, read-out: growth inhibition grade U.n): > 80%
inhibition at 50 µg/mL (Trichoderma sp.): 60 to 80%
inhibition at 50 µg/mL (Penicillium sp.): 60 to 80%
inhibition at 50 µg/mL (Cladosporium sp.): 60 to 80%
inhibition at 5 µg/mL (Phaeosphaeria nodorum; Parastagonospora nodorum, plate medium, 5 mg/L, read-out: growth inhibition grade P.n): > 80%
inhibition at 50 µg/mL (Phaeosphaeria nodorum; Parastagonospora nodorum, plate medium, 50 mg/L, read-out: growth inhibition grade P.n): > 80%
inhibition at 5 µg/mL (Alternaria alternata; Alternaria alternata, plate medium, 5 mg/L, read-out: growth inhibition grade A.m): > 80%
inhibition at 50 µg/mL (Alternaria alternata; Alternaria alternata, plate medium, 50 mg/L, read-out: growth inhibition grade A.m): > 80%
inhibition at 5 µg/mL (Fusarium oxysporum; Fusarium oxysporum, plate medium, 5 mg/L, read-out: growth inhibition grade F.c): > 80%
inhibition at 50 µg/mL (Fusarium oxysporum; Fusarium oxysporum, plate medium, 50 mg/L, read-out: growth inhibition grade F.c): > 80%

O[C@]1(Cn2cncn2)[C@H](Cc2ccc(Cl)cc2)CCC1(CCl)CCl (relative stereo) [Compound I-203, cis-5-(4-chlorobenzyl)-2,2-bis(chloromethyl)-1-(1H-1,2,4-triazol-1-yl)methylcyclopentanol]
Growth inhibition grade, U.n (Ustilago nuda; plate medium, 5 mg/L): 5 (% Mycerial growth inhibition of 80% or higher)
Growth inhibition grade, U.n (Ustilago nuda; plate medium, 50 mg/L): 5 (% Mycerial growth inhibition of 80% or higher)
Growth inhibition grade, P.n (Phaeosphaeria nodorum; plate medium, 5 mg/L): 5 (% Mycerial growth inhibition of 80% or higher)
Growth inhibition grade, P.n (Phaeosphaeria nodorum; plate medium, 50 mg/L): 5 (% Mycerial growth inhibition of 80% or higher)
Growth inhibition grade, A.m (Alternaria alternata; plate medium, 5 mg/L): 5 (% Mycerial growth inhibition of 80% or higher)
Growth inhibition grade, A.m (Alternaria alternata; plate medium, 50 mg/L): 5 (% Mycerial growth inhibition of 80% or higher)
Growth inhibition grade, F.c (Fusarium oxysporum; plate medium, 5 mg/L): 5 (% Mycerial growth inhibition of 80% or higher)
Growth inhibition grade, F.c (Fusarium oxysporum; plate medium, 50 mg/L): 5 (% Mycerial growth inhibition of 80% or higher)

C[C@]1(CCl)CC[C@H](Cc2cccc(Cl)c2)[C@]1(O)Cn1cncn1 (relative stereo) [Compound I-374]
Growth inhibition grade, U.n (Ustilago nuda; plate medium, 5 mg/L): 4 (% Mycerial growth inhibition of less than 80 to 60% or higher)
Growth inhibition grade, U.n (Ustilago nuda; plate medium, 50 mg/L): 5 (% Mycerial growth inhibition of 80% or higher)
Growth inhibition grade, P.n (Phaeosphaeria nodorum; plate medium, 5 mg/L): 5 (% Mycerial growth inhibition of 80% or higher)
Growth inhibition grade, P.n (Phaeosphaeria nodorum; plate medium, 50 mg/L): 5 (% Mycerial growth inhibition of 80% or higher)
Growth inhibition grade, A.m (Alternaria alternata; plate medium, 5 mg/L): 4 (% Mycerial growth inhibition of less than 80 to 60% or higher)
Growth inhibition grade, A.m (Alternaria alternata; plate medium, 50 mg/L): 5 (% Mycerial growth inhibition of 80% or higher)
Growth inhibition grade, F.c (Fusarium oxysporum; plate medium, 5 mg/L): 5 (% Mycerial growth inhibition of 80% or higher)
Growth inhibition grade, F.c (Fusarium oxysporum; plate medium, 50 mg/L): 5 (% Mycerial growth inhibition of 80% or higher)

C[C@]1(CCl)CC[C@@H](Cc2ccc(F)cc2F)[C@]1(O)Cn1cncn1 (relative stereo) [Compound I-88]
Growth inhibition grade, U.n (Ustilago nuda; [1]): 5 (% Mycerial growth inhibition of 80% or higher)
Growth inhibition grade, U.n (Ustilago nuda; [2]): 5 (% Mycerial growth inhibition of 80% or higher)
Growth inhibition grade, P.n (Phaeosphaeria nodorum; [1]): 5 (% Mycerial growth inhibition of 80% or higher)
Growth inhibition grade, P.n (Phaeosphaeria nodorum; [2]): 5 (% Mycerial growth inhibition of 80% or higher)
Growth inhibition grade, A.m (Alternaria alternata; [1]): 4 (% Mycerial growth inhibition of less than 80 to 60% or higher)
Growth inhibition grade, A.m (Alternaria alternata; [2]): 5 (% Mycerial growth inhibition of 80% or higher)
Growth inhibition grade, F.c (Fusarium oxysporum; [1]): 5 (% Mycerial growth inhibition of 80% or higher)
Growth inhibition grade, F.c (Fusarium oxysporum; [2]): 5 (% Mycerial growth inhibition of 80% or higher)

C[C@@]1(CCl)CC[C@@H](Cc2ccc(Cl)cc2)[C@]1(O)Cn1cncn1 (racemic) [Compound I-101]
Growth inhibition grade, U.n (Ustilago nuda; [1]): 5 (% Mycerial growth inhibition of 80% or higher)
Growth inhibition grade, U.n (Ustilago nuda; [2]): 5 (% Mycerial growth inhibition of 80% or higher)
Growth inhibition grade, P.n (Phaeosphaeria nodorum; [1]): 5 (% Mycerial growth inhibition of 80% or higher)
Growth inhibition grade, P.n (Phaeosphaeria nodorum; [2]): 5 (% Mycerial growth inhibition of 80% or higher)
Growth inhibition grade, A.m (Alternaria alternata; [1]): 5 (% Mycerial growth inhibition of 80% or higher)
Growth inhibition grade, A.m (Alternaria alternata; [2]): 5 (% Mycerial growth inhibition of 80% or higher)
Growth inhibition grade, F.c (Fusarium oxysporum; [1]): 5 (% Mycerial growth inhibition of 80% or higher)
Growth inhibition grade, F.c (Fusarium oxysporum; [2]): 5 (% Mycerial growth inhibition of 80% or higher)

C[C@]1(CCl)CC[C@@H](Cc2ccc(-c3ccccc3)cc2)[C@]1(O)Cn1cncn1 (relative stereo) [Compound I-82]
Growth inhibition grade, U.n (Ustilago nuda; [1]): 5 (% Mycerial growth inhibition of 80% or higher)
Growth inhibition grade, U.n (Ustilago nuda; [2]): 5 (% Mycerial growth inhibition of 80% or higher)
Growth inhibition grade, P.n (Phaeosphaeria nodorum; [1]): 5 (% Mycerial growth inhibition of 80% or higher)
Growth inhibition grade, P.n (Phaeosphaeria nodorum; [2]): 5 (% Mycerial growth inhibition of 80% or higher)
Growth inhibition grade, A.m (Alternaria alternata; [1]): 5 (% Mycerial growth inhibition of 80% or higher)
Growth inhibition grade, A.m (Alternaria alternata; [2]): 5 (% Mycerial growth inhibition of 80% or higher)
Growth inhibition grade, F.c (Fusarium oxysporum; [1]): 5 (% Mycerial growth inhibition of 80% or higher)
Growth inhibition grade, F.c (Fusarium oxysporum; [2]): 5 (% Mycerial growth inhibition of 80% or higher)

C[C@]1(CCl)CC[C@@H](Cc2ccc(OC(F)(F)F)cc2)[C@]1(O)Cn1cncn1 (relative stereo) [Compound I-79]
Growth inhibition grade, U.n (Ustilago nuda; [1]): 5 (% Mycerial growth inhibition of 80% or higher)
Growth inhibition grade, U.n (Ustilago nuda; [2]): 5 (% Mycerial growth inhibition of 80% or higher)
Growth inhibition grade, P.n (Phaeosphaeria nodorum; [1]): 5 (% Mycerial growth inhibition of 80% or higher)
Growth inhibition grade, P.n (Phaeosphaeria nodorum; [2]): 5 (% Mycerial growth inhibition of 80% or higher)
Growth inhibition grade, A.m (Alternaria alternata; [1]): 5 (% Mycerial growth inhibition of 80% or higher)
Growth inhibition grade, A.m (Alternaria alternata; [2]): 5 (% Mycerial growth inhibition of 80% or higher)
Growth inhibition grade, F.c (Fusarium oxysporum; [1]): 5 (% Mycerial growth inhibition of 80% or higher)
Growth inhibition grade, F.c (Fusarium oxysporum; [2]): 5 (% Mycerial growth inhibition of 80% or higher)
